pIC50: −log10 of the molar value.
Legend:
Assay type in all cases: functional, cell-based
HOP-62 = experiment: Cytotoxicity against Homo sapiens (human) HOP62 cells assessed as growth inhibition after 48 hr by trypan blue exclusion assay; conditions: HOP-62, 48 h
SW-620 = experiment: Cytotoxicity against Homo sapiens (human) SW620 cells assessed as growth inhibition after 48 hr by trypan blue exclusion assay; conditions: SW-620, 48 h
[1] = Cytotoxicity against Homo sapiens (human) 502713 cells assessed as growth inhibition after 48 hr by trypan blue exclusion assay; conditions: Homo sapiens, 502713, 48 h
SK-N-SH = experiment: Cytotoxicity against Homo sapiens (human) SK-N-SH cells assessed as growth inhibition after 48 hr by trypan blue exclusion assay
HeLa = experiment: Cytotoxicity against Homo sapiens (human) HeLa cells assessed as growth inhibition after 48 hr by trypan blue exclusion assay
PC-3 = experiment: Cytotoxicity against Homo sapiens (human) PC3 cells assessed as growth inhibition after 48 hr by trypan blue exclusion assay; conditions: PC-3, 48 h
IMR-32 = experiment: Cytotoxicity against Homo sapiens (human) IMR32 cells assessed as growth inhibition after 48 hr by trypan blue exclusion assay; conditions: IMR-32, 48 h
SF-295 = experiment: Cytotoxicity against Homo sapiens (human) SF295 cells assessed as growth inhibition after 48 hr by trypan blue exclusion assay; conditions: SF-295, 48 h

Measured: pIC50

CCCCCCC[C@@H](C/C=C/CCC(=O)Nc1ccc(Br)cc1)OC
3.76: HOP-62
< 4.00: SW-620 | [1] | HeLa | PC-3 | IMR-32 | SF-295
4.18: SK-N-SH

CCCCCCC[C@@H](C/C=C/CCC(=O)NCc1ccc(F)cc1)OC
< 4.00: HOP-62 | SW-620 | [1] | SK-N-SH | HeLa | PC-3 | IMR-32 | SF-295

CCCCCCC[C@H](O)C/C=C/CCC(=O)N1CCCCC1
< 4.00: HOP-62 | SW-620 | [1] | HeLa | PC-3 | IMR-32 | SF-295
4.00: SK-N-SH

CCCCCCC[C@@H](C/C=C/CCC(=O)N1CCCC1)OC
< 4.00: HOP-62 | SW-620 | [1] | SK-N-SH | HeLa | PC-3 | IMR-32 | SF-295

CCCCCCC[C@@H](C/C=C/CCC(=O)Nc1c(OC)cc(Cl)cc1OC)OC
< 4.00: HOP-62 | SW-620 | SK-N-SH | HeLa | PC-3 | IMR-32 | SF-295
4.19: [1]

CCCCCCC[C@@H](C/C=C/CCC(=O)NCc1ccc(OC)cc1)OC
< 4.00: HOP-62 | SW-620 | [1] | SK-N-SH | HeLa | PC-3 | IMR-32 | SF-295

CCCCCCC[C@H](C/C=C/CCC(=O)NCC(C)C)OC
< 4.00: HOP-62 | SW-620 | [1] | SK-N-SH | HeLa | PC-3 | IMR-32 | SF-295

CCCCCCC[C@@H](C/C=C/CCC(=O)NCC(C)C)OC
< 4.00: HOP-62 | SW-620 | [1] | SK-N-SH | HeLa | PC-3 | IMR-32 | SF-295

CCCCCCC[C@@H](C/C=C/CCC(=O)NCc1ccccc1)OC
< 4.00: HOP-62 | SW-620 | [1] | SK-N-SH | HeLa | PC-3 | IMR-32 | SF-295

CCCCCCC[C@H](C/C=C/CCC(=O)NCCc1ccccc1)OC [PHENETHYL(7R,4E)-METHOXYTETRADECENAMIDE]
< 4.00: HOP-62 | SW-620 | [1] | HeLa | PC-3 | IMR-32 | SF-295
4.02: SK-N-SH

CCCCCCC[C@@H](C/C=C/CCC(=O)NCc1ccc(C(F)(F)F)cc1)OC
< 4.00: HOP-62 | SW-620 | HeLa | PC-3 | IMR-32 | SF-295
4.20: SK-N-SH
4.53: [1]

CCCCCCC[C@@H](C/C=C/CCC(=O)NCCc1ccccc1)OC [HERMITAMIDE A]
< 4.00: HOP-62 | SW-620 | [1] | SK-N-SH | HeLa | PC-3 | IMR-32 | SF-295

CCCCCCC[C@H](C/C=C/CCC(=O)N1CCCC1)OC
< 4.00: HOP-62 | SW-620 | [1] | SK-N-SH | HeLa | PC-3 | IMR-32 | SF-295

CCCCCCC[C@@H](C/C=C/CCC(=O)Nc1ccc(Cl)cc1)OC
4.14: SK-N-SH
< 4.00: HOP-62 | SW-620 | [1] | HeLa | PC-3 | IMR-32 | SF-295

CCCCCCC[C@@H](C/C=C/CCC(=O)N1CCCCC1)OC
< 4.00: HOP-62 | SW-620 | [1] | SK-N-SH | HeLa | PC-3 | IMR-32 | SF-295

CCCCCCC[C@H](C/C=C/CCC(=O)N1CCCCC1)OC
< 4.00: HOP-62 | SW-620 | [1] | HeLa | PC-3 | IMR-32 | SF-295
3.93: SK-N-SH

CCCCCCC[C@H](O)C/C=C/CCC(=O)NCCc1ccccc1
3.79: SK-N-SH
< 4.00: HOP-62 | SW-620 | [1] | HeLa | PC-3 | IMR-32 | SF-295

CCCCCCC[C@H](O)C/C=C/CCC(=O)N1CCCC1
< 4.00: HOP-62 | SW-620 | [1] | HeLa | PC-3 | IMR-32 | SF-295
3.92: SK-N-SH

CCCCCCC[C@H](O)C/C=C/CCC(=O)NCC(C)C
< 4.00: HOP-62 | SW-620 | [1] | SK-N-SH | HeLa | PC-3 | IMR-32 | SF-295

— ChEMBL document CHEMBL3045453, “Novel malyngamide structural analogs: synthesis and biological evaluation” (Med Chem Res, 2013)
